According to PMC11232398, “Antimalarial activity of cecropin antimicrobial peptides derived from Anopheles mosquitoes” (Antimicrobial Agents and Chemotherapy, 2024):
Where two headings read alike, the source gives them in different places.

Key:
[1] = Acute oral toxicity test in mice; assay type: in vivo, BALB/c mice; conditions: for survival number: n = 6, 14 days; for Body weight Day0 / Body weight Day7 / Body weight Day14: n = 6, in g (unit assumed)
Description: Mice were housed under standard conditions at a temperature of 24 ± 2°C and a humidity of 50%–80%. Lighting was alternated between day and night every 12 hours. All mouse groups consisted of six animals per cage, and these were fed ad libitum with SPF-grade stock diet and water. All the experimental mice were adapted to the animal room for 1 to 2 weeks before the experiment.
For the acute toxicity test, the mice were divided into four groups. Each group contained six mice. Mice were fasted for 2 hours before feeding with a single oral dose of peptide. The mice in each group were fed with peptide at a single oral dose of 500, 200, and 100 mg/kg body weight. Normal saline (1 mL) was used as control. The general behavior of each mouse was observed continuously for the first 1 hour, then intermittently every 4 hours, and thereafter over a period of 24 hours ([43]).

[2] = tested on: P. falciparum 803 (artemisinin-resistant strain); experiment: In vitro antimalarial IC50 assay; assay type: cell-based, Plasmodium falciparum; conditions: strain 803, 72 h incubation, Giemsa smears
Description: (§1) Blood stages of the laboratory clones P. falciparum 3D7 (sensitive strain), P. falciparum 803 (artemisinin-resistant strain), and P. falciparum Dd2 (chloroquine-resistant strain) were cultured in vitro according to the method of Trager and Jensens with minor modifications ([37]). Briefly, cultures were maintained in O-positive human erythrocytes (RBCs) as host cells at 2% hematocrit and maintained in complete medium (CM) [RPMI-1640 culture medium supplemented with NaHCO3 (2 mg/mL), hypoxanthine (50 µg/mL), HEPES (5.96 mg/mL), albumax II (1%), and gentamicin (40 µg/mL)]. The cultures were diluted to 1% parasitemia and 2% hematocrit in CM and incubated in a humidified atmosphere with 5% O2, 5% CO2, and 90% N2 at 37°C. Prior to experiments, the cultures were highly synchronized for ring stages using 5% sorbitol twice at a 40-h interval. Briefly, ring stage cultures were centrifuged and the pellet was washed once in incomplete medium (ICM, RPMI-1640 without addition). […] The development of the parasite was observed using light microscopy, and parasitemia was determined by counting at least 10,000 RBCs on Giemsa’s solution-stained thin blood smears.
(§2) Highly synchronous ring stage parasites were used to investigate the in vitro antimalarial activity of the peptides. […] Thin blood films stained with Giemsa’s solution were counted under a microscope. […] IC50 was calculated by GraphPad Prism.

[3] = tested on: P. falciparum Dd2 (chloroquine-resistant strain); experiment: In vitro antimalarial IC50 assay; assay type: cell-based, Plasmodium falciparum; conditions: strain Dd2, 72 h incubation, Giemsa smears
Description: as §1, §2

[4] = tested on: Plasmodium berghei (ANKA); assay type: in vivo; conditions: for Inhibition (%) of P. berghei growth: parasitemia on day 4, BALB/c mice
Description: The in vivo antimalarial activity of peptides was evaluated using a 4-day suppressive test in P. berghei-infected mouse model mice ([44]). The mice were divided into five groups of six mice. Donor mice were infected with 200 µL of P. berghei parasite inoculum by intraperitoneal injection. Parasitized blood was collected from the tail vein of donor mice and diluted with 0.9% sodium chloride solution. Mice were then infected with saline suspension of 1 × 10^7 parasitized erythrocytes (0.2 mL) by intraperitoneal injection (Day0). Four hours after infection, each of the three groups of mice was treated with peptide by intraperitoneal injection at daily doses of 10, 25, and 50 mg/kg for 4 consecutive days. Positive control mice were treated with chloroquine at daily doses of 10 mg/kg and negative control mice with normal saline. On day 4 (96 hours post infection), the parasitemia of each mouse was determined under a light microscope by examination of Giemsa’s solution-stained thin blood smears prepared from mouse tail blood ([28]). The mean parasitemia in each group of mice was used to calculate the % suppression for each dose using the following formula:
%suppression = (parasitemia of negative control − parasitemia of test) * 100/parasitemia of negative control.
The antimalarial activity of the peptides was determined from the ratio of the percentage of parasite reduction in treated and negative control groups ([44]). Results were expressed as median (range) values.

[5] = tested on: Plasmodium falciparum 3D7; experiment: Transmission electron microscope analysis of parasite morphology; assay type: cell-based; conditions: TEM
Description: 3D7 strain parasites with parasitemia of 3% ~ 5% at a hematocrit of 2% were planted in 12-well plates, 3 mL/well. A 40-µM concentration of An-cecB or 200 µM An-cecB-1 was added and incubated for 30 min or 60 min. PBS was used as a control.
After incubation, the parasites were washed three times with ICM, and the electron microscope fixative solution (provided by the company) was added to keep the parasites clumped for 2 hours at room temperature. Finally, the samples were sent to a commercial company at 4°C for transmission electron microscope analysis.

[6] = 40 µM An-cecB or 200 µM An-cecB-1, total 20 / 22

Description for HepG2 cells: The mammalian cell lines HepG2 and HEK293T were used for cytotoxicity tests. The cells were cultured in Dulbecco’s modified Eagle medium supplemented with 10% fetal bovine serum and 1% penicillin/streptomycin in an incubator at 37°C with 5% CO2. Cells were seeded at a density of 1 × 10^5 cells/mL per well into a 96-well plate overnight and treated with different concentrations of peptides for 48 hours. To analyze the CC50 of peptides, a series of concentrations of peptides (0, 5, 10, 20, 30, 40, 50, 60, and 70 µM) were set to detect their cytotoxic concentrations. Then, 10% CCK-8 solution was added into each well and incubated for another 2 hours. The absorbance was monitored by a microplate reader at 450 nm. PBS was used as a negative control and the inhibition of each drug was normalized to that of the PBS control. CC50 was calculated by GraphPad Prism. Two independent assays with three technical replicates each time were conducted.

APRWKFGKRLEKLGRNVFRAA KKALPVIAGYKAL-NH2 [An-cecB]
CC50 (HepG2 cells): 60.43 µM
survival number ([1]; single oral dose 100 mg/kg): 6
Body weight Day0 ([1]; single oral dose 100 mg/kg): 20.45±1.56
Body weight Day7 ([1]; single oral dose 100 mg/kg): 20.9±1.62
Body weight Day14 ([1]; single oral dose 100 mg/kg): 21.98±0.91
survival number ([1]; single oral dose 200 mg/kg): 6
Body weight Day14 ([1]; single oral dose 200 mg/kg, P < 0.01 vs control): 18.4±2.1
Body weight Day0 ([1]; single oral dose 200 mg/kg): 20.45±1.56
Body weight Day7 ([1]; single oral dose 200 mg/kg): 19.25±1.8
survival number ([1]; single oral dose 500 mg/kg, one mouse died on Day8): 5
Body weight Day14 ([1]; single oral dose 500 mg/kg, P < 0.01 vs control): 16.54±3.24
Body weight Day0 ([1]; single oral dose 500 mg/kg): 19.55±2.01
IC50 [2]: 9.89 µM
IC50 [3]: 12.8 µM
Inhibition (%) of P. berghei growth ([4]; 10 mg/kg daily i.p. for 4 consecutive days): 0.63%
Inhibition (%) of P. berghei growth ([4]; 25 mg/kg daily i.p. for 4 consecutive days): 5.12%
mortality of infected mice in the 4-day suppressive test ([4]; in vivo): all infected mice died before the end of the experiment
Normal (number of parasites) ([5]; 40 µM An-cecB or 200 µM An-cecB-1, 30 or 60 min, total 20 (An-cecB), 22 (An-cecB-1)): 7
Disintegration (number of parasites) [5, 6]: 3
Parasite disoriented (number of parasites) [5, 6]: 4
Parasite membrane dissolution (number of parasites) [5, 6]: 7
Parasite shrunken (number of parasites) [5, 6]: 9
Vacuole formation (number of parasites) [5, 6]: 3
